Laboratory results from ChEMBL document CHEMBL1201862, “PubChem BioAssay data set” (2004).
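Interpolation was linear, between the two tested concentrations surrounding the appropriate level; five concentrations were tested over 48 hours in 96-well plates. Here, GI50 denotes the concentration required for 50% inhibition of growth.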 Active and inactive are the calls of the source. No stated cut-off is given here; in the data, active = GI50 up to about 1.1 µM and inactive = higher.

Experiments:
Assay in all cases: growth of human tumour cells (NCI), 48 h
MCF7 = tested on: MCF7
SK-OV-3 = tested on: SK-OV-3
ACHN = tested on: ACHN
SK-MEL-28 = tested on: SK-MEL-28
OVCAR-4 = tested on: OVCAR-4
SNB-75 = tested on: SNB-75
MDA-MB-435 = tested on: MDA-MB-435
M14 = tested on: M14
U-251 = tested on: U-251
KM12 = tested on: KM12
CAKI-1 = tested on: CAKI-1
SN12C = tested on: SN12C
MDA-MB-231 = tested on: MDA-MB-231
A549 = tested on: A549
MDA-N = tested on: MDA-N
K562 = tested on: K562
SR = tested on: SR
NCI-H23 = tested on: NCI-H23
HCC 2998 = tested on: HCC 2998
Malme-3M = tested on: Malme-3M

Measured: GI50

O=C(C1OC1c1ccc(O)cc1)C12CC3CC(CC(C3)C1)C2 (stereo not given)
inactive: MCF7 > 55.3 µM | SK-OV-3 > 100 µM | ACHN 42 µM | SK-MEL-28 > 100 µM | OVCAR-4 51.3 µM | SNB-75 > 100 µM | MDA-MB-435 > 40.7 µM | M14 > 64.3 µM | U-251 > 76 µM | KM12 98.9 µM | CAKI-1 40.8 µM | SN12C 47.1 µM | MDA-MB-231 > 100 µM | A549 95.3 µM | MDA-N > 57.1 µM | K562 23.7 µM | SR 30.1 µM | NCI-H23 97.9 µM | HCC 2998 > 100 µM | Malme-3M 45.1 µM

O=c1[nH]c(=O)n(C2CC(O)C(CS)O2)cc1F (stereo not given)
inactive: MCF7 8.38 µM | SK-OV-3 > 100 µM | ACHN 21.4 µM | SK-MEL-28 74.1 µM | OVCAR-4 > 92.7 µM | SNB-75 55.6 µM | MDA-MB-435 > 92.7 µM | M14 > 100 µM | U-251 72.8 µM | KM12 99.1 µM | CAKI-1 > 81.7 µM | SN12C 80.5 µM | MDA-MB-231 > 80 µM | A549 23.6 µM | MDA-N 86.9 µM | K562 > 93.3 µM | SR 56.6 µM | NCI-H23 > 94.4 µM | HCC 2998 4.61 µM | Malme-3M 64.7 µM

CC1(c2cccs2)CC(c2cccs2)=C(C#N)C(=C(C#N)C#N)N1 (stereo not given)
inactive: MCF7 18.5 µM | SK-OV-3 21.6 µM | ACHN 17.5 µM | SK-MEL-28 20.4 µM | OVCAR-4 16.4 µM | SNB-75 18.8 µM | MDA-MB-435 17.4 µM | M14 20.4 µM | U-251 15.8 µM | KM12 17.1 µM | CAKI-1 19.7 µM | SN12C 18.7 µM | MDA-MB-231 23.5 µM | A549 22 µM | MDA-N 16.7 µM | K562 23 µM | SR 18 µM | NCI-H23 19.4 µM | HCC 2998 15.9 µM | Malme-3M 19.2 µM

Cc1cc2ccccc2n1CC(=O)NCC(C)C
inactive: MCF7 > 100 µM | SK-OV-3 > 100 µM | ACHN > 100 µM | SK-MEL-28 > 100 µM | OVCAR-4 > 100 µM | SNB-75 > 100 µM | MDA-MB-435 > 100 µM | M14 > 100 µM | U-251 > 100 µM | KM12 > 100 µM | CAKI-1 > 100 µM | SN12C > 100 µM | MDA-MB-231 > 100 µM | A549 > 100 µM | MDA-N > 100 µM | K562 > 100 µM | SR > 100 µM | NCI-H23 > 100 µM | HCC 2998 > 100 µM | Malme-3M > 100 µM
